{
  "source": "paper PMC11189555",
  "about": "“Aryl amino acetamides prevent Plasmodium falciparum ring development via targeting the lipid-transfer protein PfSTART1” (Nature Communications, 2024)",
  "tested_on": "3D7 P. falciparum parasites",
  "test": "Growth inhibition assay (72 h, LDH activity)",
  "type": "cell-based, Plasmodium falciparum",
  "settings": "for inhibition at 0.123457 µM: conc 123.457 nM; for inhibition at 0.37037 µM: conc 370.37 nM; for inhibition at 1.11111 µM: conc 1111.11 nM; for inhibition at 3.33333 µM: conc 3333.33 nM",
  "protocol": "Parasite growth assays with inhibitory compounds were performed as per[11] and are fully described in the Supplementary Information. […]\nGrowth inhibition assays. Synchronised ring-stage parasites (0.3-0.6% parasitemia, 2% haematocrit) were grown for 72 h in a serial-dilution of the compound under […]\nand compound 4. Note that M-833 was first purchased from MolPort (MolPort -002-267-916) then made in-house at WEHI: the differences observed in EC50s across experiments are attributed to the different batches of M -833. For some experiments, 0, 0.25 or 2.5 mM of glucosamine (GlcN) was also added. Experiments were set up in technical duplicates or triplicates. Following a freeze -thaw cycle, lactate dehydrogenase (LDH) activity was assessed as an indicator of parasite growt h 5. 30 μL of parasite culture was incubated for 30 min in the dark with 75 μL Malstat mixture (0.1 M Tris pH 9.0, 20 g/L lactic acid, pH 7.5, 0.2% Triton-X100, 0.5 g/L acetylpyridine adenine dinucleotide (APAD, Sigma), 200 μg/mL nitroblue tetrazolium (NBT; Sigma), 1 μg/mL phenozine ethosulfate (PES; Sigma)). Absorbance was then measured at 650 nm, transformed using the formula below, plotted against the logarithm of the concentrations, and a non-linear regression (log(inhibitor) vs. response, variable slope) was calculated using GraphPad Prism to assess the half-inhibitory […]\nGrowth inhibition % = (1 − average(sample)− average(uRBC)) ∗ 100 […]\nThe DMSO samples were also used to assess growth of parasite in the presence of 0.25 and 2.5 mM GlcN (normalised by DMSO in 0 mM GlcN). […]",
  "key": {"[1]": {"settings": "Plasmodium falciparum, 3D7, 3D7, 0 mM GlcN, read-out: Growth inhibition assay, NORMALISED"}, "[2]": {"settings": "Plasmodium falciparum, 3D7, 3D7, 0.25 mM GlcN, read-out: Growth inhibition assay, NORMALISED"}},
  "note": "“And” between values parts separate entries of the source, which are not always exact repeats. Identical values can stand only once. Like-named read-outs stand apart in the source and are kept apart here.",
  "data": [
    {"smiles": "Cc1cc(Cl)c(S(=O)(=O)N2CCCC2)cc1OCC(=O)NC1CCCCC1", "note": "[M-833]", "values": [
      {"measurement": "Growth inhibition, (1 - av / DMSO) x 100", "setting": "Fig 2B source data, 3D7, M-833 conc 10 (unit not given), per biological replicate", "value": "97.5639% and 97.303% and 96.0397%"},
      {"measurement": "Normalised to DMSO", "setting": "M-833 0.0390625 uM, 3D7 replicate 3", "value": 105.125},
      {"measurement": "Normalised to DMSO", "setting": "M-833 0.078125 uM, 3D7 replicate 3", "value": 101.149},
      {"measurement": "Normalised to DMSO", "setting": "M-833 0.15625 uM, 3D7 replicate 3", "value": 87.6289},
      {"measurement": "Normalised to DMSO", "setting": "M-833 0.3125 uM, 3D7 replicate 3", "value": 55.4639},
      {"measurement": "Normalised to DMSO", "setting": "M-833 0.625 uM, 3D7 replicate 3", "value": 35.4934},
      {"measurement": "Normalised to DMSO", "setting": "M-833 1.25 uM, 3D7 replicate 3", "value": 26.4801},
      {"measurement": "Normalised to DMSO", "setting": "M-833 2.5 uM, 3D7 replicate 3", "value": 22.6804},
      {"measurement": "Normalised to DMSO", "setting": "M-833 5 uM, 3D7 replicate 3", "value": 16.5832},
      {"measurement": "Normalised to DMSO", "setting": "M-833 10 uM, 3D7 replicate 3", "value": 21.9735},
      {"measurement": "inhibition at 0.0137174 µM", "setting": "Plasmodium falciparum, 3D7, 3D7, 0 mM GlcN, conc 13.7174 nM, read-out: Growth inhibition assay, NORMALISED", "value": 20.6, "unit": "%"},
      {"measurement": "inhibition at 0.0411523 µM", "setting": "Plasmodium falciparum, 3D7, 3D7, 0 mM GlcN, conc 41.1523 nM, read-out: Growth inhibition assay, NORMALISED", "value": 44.4, "unit": "%"},
      {"measurement": "inhibition at 0.123457 µM", "setting": "[1]", "value": 79.5, "unit": "%"},
      {"measurement": "inhibition at 0.37037 µM", "setting": "[1]", "value": 90.2, "unit": "%"},
      {"measurement": "inhibition at 1.11111 µM", "setting": "[1]", "value": 91.3, "unit": "%"},
      {"measurement": "inhibition at 3.33333 µM", "setting": "[1]", "value": 93.7, "unit": "%"},
      {"measurement": "inhibition at 10 µM", "setting": "Plasmodium falciparum, 3D7, 3D7, 0 mM GlcN, conc 10000 nM, read-out: Growth inhibition assay, NORMALISED", "value": 94.5, "unit": "%"},
      {"measurement": "inhibition at 0.123457 µM", "setting": "[2]", "value": 77.6, "unit": "%"},
      {"measurement": "inhibition at 0.37037 µM", "setting": "[2]", "value": 91.4, "unit": "%"},
      {"measurement": "inhibition at 1.11111 µM", "setting": "[2]", "value": 95.5, "unit": "%"},
      {"measurement": "inhibition at 3.33333 µM", "setting": "[2]", "value": 94.5, "unit": "%"},
      {"measurement": "inhibition at 10 µM", "setting": "Plasmodium falciparum, 3D7, 3D7, 0.25 mM GlcN, conc 10000 nM, read-out: Growth inhibition assay, NORMALISED", "value": 92.9, "unit": "%"},
      {"measurement": "inhibition at 0.0390625 µM", "setting": "Plasmodium falciparum, 3D7, 3D7 replicate 1, M-833 0.0390625 uM", "value": 6.15, "unit": "%"},
      {"measurement": "inhibition at 0.078125 µM", "setting": "Plasmodium falciparum, 3D7, 3D7 replicate 1, M-833 0.078125 uM", "value": 21.8, "unit": "%"},
      {"measurement": "inhibition at 0.15625 µM", "setting": "Plasmodium falciparum, 3D7, 3D7 replicate 1, M-833 0.15625 uM", "value": 47, "unit": "%"},
      {"measurement": "inhibition at 0.3125 µM", "setting": "Plasmodium falciparum, 3D7, 3D7 replicate 1, M-833 0.3125 uM", "value": 68.2, "unit": "%"},
      {"measurement": "inhibition at 0.625 µM", "setting": "Plasmodium falciparum, 3D7, 3D7 replicate 1, M-833 0.625 uM", "value": 84.4, "unit": "%"},
      {"measurement": "inhibition at 1.25 µM", "setting": "Plasmodium falciparum, 3D7, 3D7 replicate 1, M-833 1.25 uM", "value": 93.1, "unit": "%"},
      {"measurement": "inhibition at 2.5 µM", "setting": "Plasmodium falciparum, 3D7, 3D7 replicate 1, M-833 2.5 uM", "value": 95.8, "unit": "%"},
      {"measurement": "inhibition at 5 µM", "setting": "Plasmodium falciparum, 3D7, 3D7 replicate 1, M-833 5 uM", "value": 95.5, "unit": "%"},
      {"measurement": "inhibition at 10 µM", "setting": "Plasmodium falciparum, 3D7, 3D7 replicate 1, M-833 10 uM, read-out: % Inhibition", "value": 97.3, "unit": "%"},
      {"measurement": "EC50", "setting": "Plasmodium falciparum, 3D7, 72 h, Fig 2B, 3D7, 72 h, n = 3, unit only in x-axis title, read-out: EC50 (95% confidence interval)", "value": 0.0976, "unit": "µM"},
      {"measurement": "EC50", "setting": "Plasmodium falciparum, 3D7, 72 h, Fig 2D, 3D7, 72 h, n = 3, read-out: EC50 (95% confidence interval)", "value": 0.0497, "unit": "µM"},
      {"measurement": "EC50", "setting": "Plasmodium falciparum, 3D7, 72 h, Supplementary Table 1, 3D7, 72 h, read-out: EC50", "value": 0.156, "unit": "µM"},
      {"measurement": "EC50", "setting": "Plasmodium falciparum, 3D7, Fig 1B, 3D7, 10 µM to 0.04 µM M-833, n = 3, unit only on x-axis label, read-out: EC50 (95% confidence interval)", "value": 0.17, "unit": "µM"},
      {"measurement": "EC50", "setting": "Plasmodium falciparum, 3D7, Fig 3C, 3D7, 0 mM GlcN, n = 4, unit on plot axis, read-out: EC50 M-833 (95% confidence interval)", "value": 0.157, "unit": "µM"},
      {"measurement": "EC50", "setting": "Plasmodium falciparum, 3D7, Fig 3C, 3D7, 0.25 mM GlcN, n = 4, unit on plot axis, read-out: EC50 M-833 (95% confidence interval)", "value": 0.158, "unit": "µM"},
      {"measurement": "EC50", "setting": "Plasmodium falciparum, 3D7, Fig 3C, 3D7, 2.5 mM GlcN, n = 4, unit on plot axis, read-out: EC50 M-833 (95% confidence interval)", "value": 0.118, "unit": "µM"},
      {"measurement": "EC50", "setting": "Plasmodium falciparum, 3D7, Fig 3F, 3D7, 0.25 mM GlcN, n = 3, read-out: EC50 M-833 (95% confidence interval)", "value": 0.0548, "unit": "µM"},
      {"measurement": "EC50", "setting": "Plasmodium falciparum, 3D7, Fig 3F, 3D7, 2.5 mM GlcN, n = 3, read-out: EC50 M-833 (95% confidence interval)", "value": 0.0373, "unit": "µM"},
      {"measurement": "EC50", "setting": "Plasmodium falciparum, 3D7, Fig 4A, 3D7 parasites, read-out: Pf 3D7 EC50 (SD)", "value": 1.1, "unit": "µM"},
      {"measurement": "inhibition at 0.0390625 µM", "setting": "Plasmodium falciparum, 3D7, M-833 0.0390625 uM, 3D7 replicate 1", "value": 1.91, "unit": "%"},
      {"measurement": "inhibition at 0.0390625 µM", "setting": "Plasmodium falciparum, 3D7, M-833 0.0390625 uM, 3D7 replicate 3", "value": -5.13, "unit": "%"},
      {"measurement": "inhibition at 0.078125 µM", "setting": "Plasmodium falciparum, 3D7, M-833 0.078125 uM, 3D7 replicate 1", "value": 30.8, "unit": "%"},
      {"measurement": "inhibition at 0.078125 µM", "setting": "Plasmodium falciparum, 3D7, M-833 0.078125 uM, 3D7 replicate 3", "value": -1.15, "unit": "%"},
      {"measurement": "inhibition at 0.15625 µM", "setting": "Plasmodium falciparum, 3D7, M-833 0.15625 uM, 3D7 replicate 1", "value": 57.1, "unit": "%"},
      {"measurement": "inhibition at 0.15625 µM", "setting": "Plasmodium falciparum, 3D7, M-833 0.15625 uM, 3D7 replicate 3", "value": 12.4, "unit": "%"},
      {"measurement": "inhibition at 0.3125 µM", "setting": "Plasmodium falciparum, 3D7, M-833 0.3125 uM, 3D7 replicate 1", "value": 82.6, "unit": "%"},
      {"measurement": "inhibition at 0.3125 µM", "setting": "Plasmodium falciparum, 3D7, M-833 0.3125 uM, 3D7 replicate 3", "value": 44.5, "unit": "%"},
      {"measurement": "inhibition at 0.625 µM", "setting": "Plasmodium falciparum, 3D7, M-833 0.625 uM, 3D7 replicate 1", "value": 87.3, "unit": "%"},
      {"measurement": "inhibition at 0.625 µM", "setting": "Plasmodium falciparum, 3D7, M-833 0.625 uM, 3D7 replicate 3", "value": 64.5, "unit": "%"},
      {"measurement": "inhibition at 1.25 µM", "setting": "Plasmodium falciparum, 3D7, M-833 1.25 uM, 3D7 replicate 1", "value": 91, "unit": "%"},
      {"measurement": "inhibition at 1.25 µM", "setting": "Plasmodium falciparum, 3D7, M-833 1.25 uM, 3D7 replicate 3", "value": 73.5, "unit": "%"},
      {"measurement": "inhibition at 2.5 µM", "setting": "Plasmodium falciparum, 3D7, M-833 2.5 uM, 3D7 replicate 1", "value": 91.8, "unit": "%"},
      {"measurement": "inhibition at 2.5 µM", "setting": "Plasmodium falciparum, 3D7, M-833 2.5 uM, 3D7 replicate 3", "value": 77.3, "unit": "%"},
      {"measurement": "inhibition at 5 µM", "setting": "Plasmodium falciparum, 3D7, M-833 5 uM, 3D7 replicate 1", "value": 91.3, "unit": "%"},
      {"measurement": "inhibition at 5 µM", "setting": "Plasmodium falciparum, 3D7, M-833 5 uM, 3D7 replicate 3", "value": 83.4, "unit": "%"},
      {"measurement": "inhibition at 10 µM", "setting": "Plasmodium falciparum, 3D7, M-833 10 uM, 3D7 replicate 1, read-out: % Inhibition", "value": 91.1, "unit": "%"},
      {"measurement": "inhibition at 10 µM", "setting": "Plasmodium falciparum, 3D7, M-833 10 uM, 3D7 replicate 3, read-out: % Inhibition", "value": 78, "unit": "%"},
      {"measurement": "effect of GlcN addition on EC50", "setting": "control 3D7", "value": "did not change the EC50"}
    ]}
  ]
}
